Results: PubChem BioAssay (NCI)
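A five-concentration, 48-hour dose response in 96-well plates underlies each endpoint, interpolated linearly between surrounding concentrations. TGI: total growth inhibition.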

Experiments:
Test in all cases: DTP human tumour cell line panel, 48 h
SN12C renal = tested on: SN12C renal
SK-MEL-5 melanoma = tested on: SK-MEL-5 melanoma
HCT-15 colon = tested on: HCT-15 colon
SNB-75 CNS = tested on: SNB-75 CNS
HCC-2998 colon = tested on: HCC-2998 colon
A498 renal = tested on: A498 renal
MDA-MB-231 breast = tested on: MDA-MB-231 breast
786-0 renal = tested on: 786-0 renal
NCI-H23 lung = tested on: NCI-H23 lung
HOP-92 NSCLC = tested on: HOP-92 NSCLC
MDA-N = tested on: MDA-N

SMILES	TGI (SN12C renal) [µM]	TGI (SK-MEL-5 melanoma) [µM]	TGI (HCT-15 colon) [µM]	TGI (SNB-75 CNS) [µM]	TGI (HCC-2998 colon) [µM]	TGI (A498 renal) [µM]	TGI (MDA-MB-231 breast) [µM]	TGI (786-0 renal) [µM]	TGI (NCI-H23 lung) [µM]	TGI (HOP-92 NSCLC) [µM]	TGI (MDA-N) [µM]
CC(C)(Oc1ccc(Cl)cc1)C(=O)N(C(=O)N1CCC(c2ccccc2)CC1)c1ccccc1	> 100	65.8	> 100	> 83.2	> 100	> 100	> 100	> 100	> 100	> 100	
CC1CC/C(=C\c2ccc(Cl)cc2)C2OC(N)=C(C#N)C(c3ccc(Cl)cc3)=C12 (configuration not stated)	26.5	32.1	23.1				23.7	26.5	29.4		32.2
COc1ccc(C(SC2C(O)C(CO)OC2n2ccc(N)nc2=O)(c2ccccc2)c2ccc(OC)cc2)cc1 (configuration not stated)	27.5	25.6	46.2	46.6	32.6		30.8	30.8	57.6	37.3	24.2
CCOc1cc(C2CC(c3ccc(NS(=O)(=O)c4cc([N+](=O)[O-])ccc4C)cc3)=NN2c2ccc([N+](=O)[O-])cc2[N+](=O)[O-])ccc1O (configuration not stated)	9.97	23.1	> 100	35.3			20.6	6.71	42.9	29.3	39.5
COc1cc2c(cc1OC)C(Cl)C(c1ccc(Cl)c(Cl)c1)=C2Cl (configuration not stated)	26.5	19.8	12.6	23.9		34			> 100	15.1	
CCOC(=O)Cc1cc(OC)c(OC)cc1/C(Cl)=C(\C=O)c1ccc(OC)c(OC)c1	33.5	35.1	45.2	> 100					51.2	10.3	
c1ccc2c(c1)CCc1c-2n(CCN2CCOCC2)c2ccccc12	> 100	51.2	> 100		> 100		> 100	> 100	> 100	38.1	> 100
Nc1ncnc2c1nnn2C1CCC(CP(=O)(O)O)C1 (configuration not stated)	> 100	> 100	> 100	> 100	> 100		> 100	> 100	> 100	> 100	> 100
OC(CCNCc1ccccc1)c1ccc2ccccc2c1 (configuration not stated)	72.2	32.4	38.8	75.6	62.8	40	35.3	35.9	62.1		
COc1cc2cc[n+]3c(C)c4cc(OC)c(OC)cc4c([O-])c3c2cc1OC	> 100	> 100	> 100	> 100	> 100	> 100			> 100	> 100	
O=c1oc2ccccc2cc1-c1cn2cc(Cl)ccc2n1	22.4	19.1	20.7	> 21.2	21.7		23.1	8.95	21.1	36.4	0.428
C(CCCCc1nnc(N2CCCCC2)o1)CCCc1nnc(N2CCCCC2)o1	> 100	> 100	> 100	> 100	> 100	> 100	> 100	> 100	> 100	> 100	
COc1cc(/C=C2/C[C@H]3[C@@H]4CC=C5C[C@@H](OC(C)=O)CC[C@]5(C)[C@H]4CC[C@]3(C)NC2=O)cc(OC)c1OC	> 100	> 100	> 100	47.3	> 100		62.5	36.7	67	52.3	> 100
COc1c(O)cc(O)c2c(=O)cc(-c3ccccc3)oc12	> 100	> 100	> 100	> 100	> 100		> 100	> 100	> 100	> 100	> 100
C/C(Nc1ccc(F)cc1)=C1/CCOC1=O	> 100	> 100	> 100	> 100	> 100	> 100	> 100	> 100	> 100	> 100	
O=C(O)c1ccn(-c2cccc(-n3ccc(C(=O)O)n3)n2)n1	> 100	> 100	> 100	> 100			> 100	> 100	> 100		> 100
O=C1C(=O)c2ccccc2C(O)=C1CCCc1ccc(Oc2ccccc2)cc1	> 100	10.6	79.7	73.9	74.3	90.5		35.4	19.1	49.5	
